The subject of one assay is S. epidermidis. Put plainly: Antimicrobial activity on bio-coated titanium substrates, fluorescence imaging and ImageJ. Type of assay: cell-based. The source says:
Two surfaces, 99% pure titanium foil (Alfa Aesar 43677, Ward Hill, Mass.) and titanium implant discs cut from standard rods used in posterior lumbar surgery (University of Kansas Medical Center Department of Neurosurgery, Kansas City, Kans.) were used for evaluation of TiBP-Spacer5-AMP biocoating antimicrobial activity. Titanium foils were cut into squares measuring 0.5 mm thick×1 cm×1 cm and 6 mm diameter implant rods were cut by the University of Kansas Medical Center Department of Neurosurgery with a standard orthopedic surgical rod cutter into 3 mm long disc segments. […]
Antimicrobial activity of TiBP-Spacer5-AMP biocoated titanium surfaces against each bacterial strain was evaluated by culturing bacteria in 24 well plates containing bio-coated surfaces or bare, untreated control surfaces. […] Stained bacteria were imaged with a fluorescence microscope (Olympus Spin Disk Epifluorescent microscope, Richmond Hill, Ontario, Canada) at an excitation/emission wave number provided by the manufacturer. Five representative fluorescence images were taken for each sample (n=3) and the bacteria were quantified using ImageJ Software and then subjected to statistical analysis.

The subject of another assay is NIH/3T3 fibroblast. Put plainly: Host cell attachment and spreading on coated titanium surfaces. It is filed as cell-based. The following applies: 60 μM bio-coating. How it is done:
Host cell response was evaluated with a fibroblast cell line (NIH/3T3 ATCC CRL-1658). The fibroblast cells were cultured following the ATCC protocol. Briefly, cells were grown in DMEM media (Gibco 11995073, Carlsbad, Calif.) supplemented with 10% fetal bovine serum (Gibco 10437036) and 1% penicillin-streptomycin (Gibco 15070063) and incubated at 37° C. in a 5% CO2 atmosphere. Fibroblasts were passaged using 0.25% TrypsinEDTA (Gibco 25200072) and cells were counted to ensure correct seeding concentrations. Fibroblast cell response to 60 μM TiBP-Spacer5AMP bio-coating, 200 μg/mL collagen (Sigma C7661, St. Louis, Mo.) coating (positive control) and bare, untreated (negative control) titanium foil and implant surfaces was studied. Fibroblast cells at a concentration of 8×10^5 cells/mL were added to sterile 24 well plates containing TiBP-Spacer5-AMP coated, collagen coated, or bare, untreated foils or implants and incubated for 24 h at 37° C. in a 5% CO2 atmosphere. Fibroblast attachment and spreading were evaluated by fixing fibroblasts on titanium surfaces with 2% glutaraldehyde solution, followed by dehydration in 10%, 30%, 60%, 90% and 100% ethanol. Fixed fibroblasts on titanium surfaces were washed twice with PBS, permeabilized with TritonX (Sigma T8787), sealed with BSA (Fisher BioReagents BP671-10, Carlsbad, Calif.), and stained with Alexa Fluor488-Phalloidin dye (Invitrogen). Unbound dye was removed by washing with PBS and substrates were imaged with a fluorescent microscope at 4, 10 and 20 times magnification. Five representative images of each surface (n=3) were obtained and analyzed with ImageJ Software and then subjected to statistical analysis. Cell attachment was determined as number of cells per square millimeter and the percentage of the image surface covered by attached cells. Another measure of viability, metabolic activity was determined using a MTT (3-(4,5-dimethylthiazol-2-yl)-25-diphenyltetrazolium bromide) assay (Sigma M5655). […] Absorbance was measured at 570 nm.

The test system of assay [1] is S. epidermidis (ATCC 29886). Put plainly: AlamarBlue assay, minimum bactericidal concentration. Type of assay: cell-based. As to the method: (§1) The antimicrobial activity of TiBP-Spacer5-AMP was evaluated against two bacterial strains, S. mutans (American Type Culture Collection (ATCC) 25175, Manassas, Va.) and S. epidermidis (ATCC 29886). S. mutans cultures were prepared using Brain Heart Infusion Broth (BHI, BD Difco, Franklin Lakes, N.J.) and S. epidermidis using Nutrient Broth (NB, BD Difco) according to ATCC protocols. Bacterial pellets obtained from ATCC were rehydrated in appropriate media of which several drops were used to streak either BHI or NB agar plates. Bacteria streaked agar plates were subsequently incubated for 24 h. Agar plates and cultures were incubated at 37° C. in the presence of 5% CO2-supplemented atmosphere for S. mutans and in aerobic atmosphere and 200 rpm shaking for S. epidermidis. Overnight cultures were made by aseptically transferring a single-colony forming unit (CFU) into 10 mL of appropriate broth media followed by incubation in appropriate conditions for 16 h. Bacteria from overnight cultures were used to inoculate fresh media and grown to mid-log phase.
(§2) The MIC of TiBP-Spacer5-AMP against S. mutans and S. epidermidis in solution was evaluated in 96 well plates (Corning Costar 3370, Corning, N.Y.) spectrophotometrically over a period of 24 h by obtaining a measurement for the optical density at 600 nm (OD600) every two hours. […]

The subject of assay [2] is S. mutans (ATCC 25175). Described as above. It is filed as cell-based. As to the method:
as §1, §2

The subject of assay [3] is S. epidermidis (ATCC 29886). The assay can be described thus: MIC in solution, OD600 over 24 h. To be noted: for Growth: S. epidermidis. It is filed as cell-based. More on the design: key to Growth: Entries with a “+” indicate bacterial growth did occur at that concentration of TiBP-Spacer5-AMP; entries with a “−” indicate inhibition of bacterial growth. How it is done:
as §1
(§3) The MIC of TiBP-Spacer5-AMP against S. mutans and S. epidermidis in solution was evaluated in 96 well plates (Corning Costar 3370, Corning, N.Y.) spectrophotometrically over a period of 24 h by obtaining a measurement for the optical density at 600 nm (OD600) every two hours. Optical density at 600 nm was measured using a Cytation3 microplate reader (Bio Tek Instruments, Winooski, Vt.). Bacteria grown to mid-log phase at a density of 10^7 CFU/mL were cultured at appropriate growth conditions in appropriate broth media only as a control or in broth media containing a range from 5-70 μM of TiBP-Spacer5-AMP for S. mutans and 1-10 μM for S. epidermidis. The OD600 measurements obtained, relating optical density to bacteria CFUs/mL, were plotted versus time to generate standard growth curves. The minimum concentration of TiBP-Spacer5-AMP at which no increase in optical density measurement, corresponding to no bacterial growth occurring was designated as the MIC. AlamarBlue assay (Invitrogen, Carlsbad, Calif.) was used for determination of a minimum bactericidal concentration of TiBP-Spacer5-AMP. Bacteria in broth media only and with the TiBPSpacer5-AMP concentrations described in the MIC experiments were prepared in 96 well plates. AlamarBlue reagent was added to experimental wells and incubated for two hours at 37° C. Experimental wells were observed and evaluated for color change. Wells corresponding to concentrations of TiBP-Spacer5-AMP where no color change occurred were determined to have bactericidal concentrations of the chimeric peptide.

For assay [4], the system named is S. mutans (ATCC 25175). Put plainly: MIC in solution, OD600 over 24 h. Type of assay: cell-based. More on the design: key to Growth: Entries with a “+” indicate bacterial growth did occur at that concentration of TiBP-Spacer5-AMP; entries with a “−” indicate inhibition of bacterial growth. The following applies: for Growth: S. mutans. As to the method:
as §1, §3

The subject of assay [5] is S. mutans (ATCC 25175). The following applies: in solution; previously published values; cited from earlier work.
Assay [6] has as its system S. epidermidis (ATCC 29886). To be noted: in solution; previously published values; cited from earlier work.
Assay [7] deals with Escherichia coli, ATCC 25922.
From the text: The antibacterial activity against two strains of bacteria of a previously published cHABP1 peptide,^65,66 an antimicrobial peptide designed through artificial intelligence methods (HHC-36),^67 and a chimeric peptide cHABP1-GGG-HHC36 to functionalize calcium phosphate surfaces with antibacterial activity.

“Also recorded” adds a separate entry of the source. Where two headings read alike, the source gives them in different places. Ends that are not written are not given here. Peptide text beside a SMILES is read from it.

As to “RPRENRGRERGLGSGGGLKLLKKLLKLLKKL [TiBP-Spacer5-AMP, RPRENRGRERGL-GSGGG-LKLLKKLLKLLKKL (SEQ ID NO: 10)]”, in the assay on S. epidermidis (implant discs coated at 10 μM), the “Fold Improvement Compared to Uncoated Ti Surfaces, Implants” value was found to be 48 fold. The “Fold Improvement Compared to Uncoated Ti Surfaces, Foils” value in the assay on S. epidermidis (titanium foil coated at 10 μM) was 33 fold. Moreover, the “fibroblast surface coverage (spreading)” value in the assay on NIH/3T3 fibroblast (titanium foils, compared to untreated control) was “greater coverage”. The adhesion and spreading entry with NIH/3T3 fibroblast (titanium implants, compared to collagen positive control) was “statistically comparable to the positive collagen controls”. Besides, the “cell attachment and spreading” value in the assay on NIH/3T3 fibroblast (titanium implants, compared to untreated control) was “greater cell attachment and spreading compared to untreated controls; also recorded: statistically greater cell attachment and spreading properties”. The values for the bactericidal concentration (in assay [1]; in the assay on S. mutans (ATCC 25175) [2]) were 10 µM and 60 µM, respectively. Moreover, the Growth result in assay [3] (1 μM), in assay [3] (2 μM), in assay [3] (3 μM), in assay [3] (4 μM), in [3] (5 μM) and in assay [3] (6 μM) was “+” in each case. In addition, the Growth entry in [3] (7 μM) was “+”; in assay [3] (8 μM), “−”; with S. mutans (ATCC 25175) [4] (5 μM) it was “+”; in the assay on S. mutans (ATCC 25175) [4] (10 μM) it was “+”; in the assay on S. mutans (ATCC 25175) [4] (20 μM) it was “+”; with S. mutans (ATCC 25175) [4] (30 μM), “+”. Besides, the Growth result in the assay with S. mutans (ATCC 25175) [4] (40 μM) is given as “+”; in the assay on S. mutans (ATCC 25175) [4] (50 μM), “−”; with S. mutans (ATCC 25175) [4] (60 μM), “−”; in the assay with S. mutans (ATCC 25175) [4] (70 μM) it was “−”. For the same molecule, the “Minimum Inhibitory Concentration (MIC) S. epidermidis” value in assay [3] (in solution) was determined as 8 µM. The “improvement (decrease) of MIC against S. mutans” value in the assay on S. mutans (ATCC 25175) [4] (compared to TiBP-Spacer3-AMP) is recorded as “three-fold”. The “Minimum Inhibitory Concentration (MIC) S. mutans” value with S. mutans (ATCC 25175) [4] (in solution) was 50 µM.

For the molecule “LKLLKKLLKLLKKL (SEQ ID NO: 8) [AMP, antimicrobial peptide]”, the “Minimum Inhibitory Concentration (MIC) S. mutans” value in the assay on S. mutans (ATCC 25175) [5] was 38 µM. The “Minimum Inhibitory Concentration (MIC) S. epidermidis” value in assay [6] was 4 µM.

With “KRWWKWWRR [HHC-36, KRWWKWWRR (SEQ ID NO: 37)]”, the “E. coli IC50” value in assay [7] turned out to be 12 µg/mL. Also, in [7] (Escherichia coli, ATCC 25922), the MIC estimate is 21.5 µM. For the same molecule, the “S. mutans IC50” value with S. mutans stood at 3 µg/mL. In the assay with S. mutans (S. mutans), this molecule yielded an MIC value of 10.8 µM.

For `CSCC[C@H](NC(=O)[C@@H](N)CS)C(=O)N[C@@H](CC(C)C)C(=O)N1CCC[C@H]1C(=O)N[C@@H](Cc1c[nH]cn1)C(=O)N[C@@H](Cc1c[nH]cn1)C(=O)NCC(=O)N[C@@H](C)C(=O)N[C@@H](CS)C(=O)O` [cHABP1, CMLPHHGAC (SEQ ID NO: 36)] (H-CMLPHHGAC-OH; N-terminus and C-terminus assumed), the “antibacterial activity by absorbance at 600 nm (FIG. 11)” value (in assay [7] (E. coli); in the assay on S. mutans (S. mutans)) was “some antibacterial activity in the higher tested concentrations” throughout.

For “RPRENRGRERGL-GGG-LKLLKKLLKLLKKL (SEQ ID NO: 9) (RPRENRGRERGLGGGLKLLKKLLKLLKKL) [TiBP-Spacer3-AMP, comparative chimeric peptide with shorter spacer]”, the “Minimum Inhibitory Concentration (MIC) S. mutans” value in the assay with S. mutans (ATCC 25175) [5] is 153 µM. Also, in assay [6], the “Minimum Inhibitory Concentration (MIC) S. epidermidis” value is 5 µM.

Values taken from US11492382B2, “Chimeric peptides with an antimicrobial domain and an inorganic binding domain” (priority 2017, dated 2022).
